Source: the kinase profiling compilation of Christmann-Franck et al. (2016)

Legend:
Assay in all cases: Free Choice Kinase Assay Projects, Flashplate
MET (human) = MET (human) (UniProt P08581); settings: compound 10.0 µM; ATP 0.3 µM
EPHB4 (human) = EPHB4 (human) (UniProt P54760); settings: compound 10.0 µM; ATP 1 µM
CDK4 CCND1 (human) = CDK4 CCND1 (human) (UniProt P11802+P24385); settings: compound 10.0 µM; ATP 3 µM
KDR (human) = KDR (human) (UniProt P35968); settings: compound 10.0 µM; ATP 1 µM
ERBB2 (human) = ERBB2 (human) (UniProt P04626); settings: compound 10.0 µM; ATP 1 µM
TEK (human) = TEK (human) (UniProt Q02763); settings: compound 10.0 µM; ATP 1 µM
PLK4 (human) = PLK4 (human) (UniProt O00444); settings: compound 10.0 µM; ATP 0.3 µM
SRC (human) = SRC (human) (UniProt P12931); settings: compound 10.0 µM; ATP 0.3 µM
Sequence of SRC (human) (P12931 whole entry, looked up): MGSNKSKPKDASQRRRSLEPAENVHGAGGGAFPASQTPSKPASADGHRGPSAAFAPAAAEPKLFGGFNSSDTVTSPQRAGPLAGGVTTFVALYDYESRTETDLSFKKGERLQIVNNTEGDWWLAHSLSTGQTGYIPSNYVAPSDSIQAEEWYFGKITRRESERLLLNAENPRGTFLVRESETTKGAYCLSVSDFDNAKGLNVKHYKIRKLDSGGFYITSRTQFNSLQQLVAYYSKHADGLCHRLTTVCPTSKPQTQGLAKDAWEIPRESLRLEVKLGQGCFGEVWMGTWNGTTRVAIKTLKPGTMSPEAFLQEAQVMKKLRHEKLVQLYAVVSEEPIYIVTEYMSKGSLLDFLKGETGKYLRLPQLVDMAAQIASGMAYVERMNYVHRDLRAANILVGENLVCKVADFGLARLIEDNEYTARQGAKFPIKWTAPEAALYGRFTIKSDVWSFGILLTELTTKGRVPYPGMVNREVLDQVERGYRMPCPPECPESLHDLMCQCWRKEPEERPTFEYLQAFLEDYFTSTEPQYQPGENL

AKT1 (human) = AKT1 (human) (UniProt P31749); settings: compound 10.0 µM; ATP 3 µM
AXL (human) = AXL (human) (UniProt P30530); settings: compound 10.0 µM; ATP 0.3 µM
Sequence of AXL (human) (P30530 whole entry, looked up): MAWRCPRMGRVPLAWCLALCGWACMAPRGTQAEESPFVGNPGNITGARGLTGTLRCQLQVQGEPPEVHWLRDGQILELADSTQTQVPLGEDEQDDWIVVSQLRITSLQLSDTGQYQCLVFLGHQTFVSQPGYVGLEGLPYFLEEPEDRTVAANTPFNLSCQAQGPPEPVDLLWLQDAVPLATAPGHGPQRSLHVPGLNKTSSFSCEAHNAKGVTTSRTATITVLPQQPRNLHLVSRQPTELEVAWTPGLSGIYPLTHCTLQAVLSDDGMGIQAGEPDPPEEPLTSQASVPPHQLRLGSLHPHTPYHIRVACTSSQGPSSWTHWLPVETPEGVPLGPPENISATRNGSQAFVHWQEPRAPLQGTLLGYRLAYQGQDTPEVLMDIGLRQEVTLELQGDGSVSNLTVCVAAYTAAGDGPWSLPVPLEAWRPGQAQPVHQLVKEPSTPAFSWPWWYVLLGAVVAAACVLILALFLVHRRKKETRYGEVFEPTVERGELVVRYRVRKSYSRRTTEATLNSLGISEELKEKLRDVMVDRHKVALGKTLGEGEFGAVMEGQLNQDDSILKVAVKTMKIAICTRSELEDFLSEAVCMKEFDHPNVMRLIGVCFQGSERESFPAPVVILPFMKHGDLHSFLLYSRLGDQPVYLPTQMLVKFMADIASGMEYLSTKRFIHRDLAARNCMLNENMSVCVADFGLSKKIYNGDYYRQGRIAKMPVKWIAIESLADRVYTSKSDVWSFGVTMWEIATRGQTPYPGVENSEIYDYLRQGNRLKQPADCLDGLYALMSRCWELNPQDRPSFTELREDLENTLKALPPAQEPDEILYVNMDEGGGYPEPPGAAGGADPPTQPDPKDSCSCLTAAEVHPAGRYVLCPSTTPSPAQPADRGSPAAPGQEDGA

MAPK14 (human) = MAPK14 (human) (UniProt Q16539); settings: compound 10.0 µM; ATP 1 µM
AURKA (human) = AURKA (human) (UniProt O14965); settings: compound 10.0 µM; ATP 10 µM
PLK1 (human) = PLK1 (human) (UniProt P53350); settings: compound 10.0 µM; ATP 1 µM
EGFR (human) = EGFR (human) (UniProt P00533); settings: compound 10.0 µM; ATP 0.3 µM
MAP3K8 (human) = MAP3K8 (human) (UniProt P41279); settings: compound 10.0 µM; ATP 3 µM
PTK2 (human) = PTK2 (human) (UniProt Q05397); settings: compound 10.0 µM; ATP 1 µM
Sequence of PTK2 (human) (Q05397 whole entry, looked up): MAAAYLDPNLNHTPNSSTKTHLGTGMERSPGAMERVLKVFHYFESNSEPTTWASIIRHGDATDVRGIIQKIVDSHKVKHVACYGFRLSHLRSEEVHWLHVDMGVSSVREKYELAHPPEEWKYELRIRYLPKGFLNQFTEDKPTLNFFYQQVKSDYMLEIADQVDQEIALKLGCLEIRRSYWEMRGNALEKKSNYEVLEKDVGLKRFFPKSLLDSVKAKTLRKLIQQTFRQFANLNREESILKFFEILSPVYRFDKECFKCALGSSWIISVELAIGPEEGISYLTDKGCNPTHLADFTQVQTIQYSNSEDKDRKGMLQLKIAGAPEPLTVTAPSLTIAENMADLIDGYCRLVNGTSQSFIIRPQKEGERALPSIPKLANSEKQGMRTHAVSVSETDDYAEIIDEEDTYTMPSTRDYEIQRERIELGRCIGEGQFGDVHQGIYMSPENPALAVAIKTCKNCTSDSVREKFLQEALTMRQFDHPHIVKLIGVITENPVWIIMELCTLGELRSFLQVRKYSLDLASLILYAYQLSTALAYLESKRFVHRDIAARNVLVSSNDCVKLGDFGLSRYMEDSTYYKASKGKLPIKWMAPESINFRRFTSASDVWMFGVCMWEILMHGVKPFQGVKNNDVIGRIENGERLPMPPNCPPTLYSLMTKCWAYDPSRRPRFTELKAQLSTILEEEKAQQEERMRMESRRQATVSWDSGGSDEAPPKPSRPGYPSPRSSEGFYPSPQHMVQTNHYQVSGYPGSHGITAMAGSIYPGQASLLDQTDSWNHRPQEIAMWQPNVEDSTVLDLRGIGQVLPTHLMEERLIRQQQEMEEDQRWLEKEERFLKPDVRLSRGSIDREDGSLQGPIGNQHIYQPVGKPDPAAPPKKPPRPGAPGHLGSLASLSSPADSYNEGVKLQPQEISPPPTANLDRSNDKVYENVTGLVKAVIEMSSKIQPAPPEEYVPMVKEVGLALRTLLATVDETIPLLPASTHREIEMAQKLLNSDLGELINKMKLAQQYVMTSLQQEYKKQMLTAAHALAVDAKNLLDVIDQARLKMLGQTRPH

AURKB (human) = AURKB (human) (UniProt Q96GD4); settings: compound 10.0 µM; ATP 10 µM
NUAK1 (human) = NUAK1 (human) (UniProt O60285); settings: compound 10.0 µM; ATP 1 µM
Sequence of NUAK1 (human) (O60285 whole entry, looked up): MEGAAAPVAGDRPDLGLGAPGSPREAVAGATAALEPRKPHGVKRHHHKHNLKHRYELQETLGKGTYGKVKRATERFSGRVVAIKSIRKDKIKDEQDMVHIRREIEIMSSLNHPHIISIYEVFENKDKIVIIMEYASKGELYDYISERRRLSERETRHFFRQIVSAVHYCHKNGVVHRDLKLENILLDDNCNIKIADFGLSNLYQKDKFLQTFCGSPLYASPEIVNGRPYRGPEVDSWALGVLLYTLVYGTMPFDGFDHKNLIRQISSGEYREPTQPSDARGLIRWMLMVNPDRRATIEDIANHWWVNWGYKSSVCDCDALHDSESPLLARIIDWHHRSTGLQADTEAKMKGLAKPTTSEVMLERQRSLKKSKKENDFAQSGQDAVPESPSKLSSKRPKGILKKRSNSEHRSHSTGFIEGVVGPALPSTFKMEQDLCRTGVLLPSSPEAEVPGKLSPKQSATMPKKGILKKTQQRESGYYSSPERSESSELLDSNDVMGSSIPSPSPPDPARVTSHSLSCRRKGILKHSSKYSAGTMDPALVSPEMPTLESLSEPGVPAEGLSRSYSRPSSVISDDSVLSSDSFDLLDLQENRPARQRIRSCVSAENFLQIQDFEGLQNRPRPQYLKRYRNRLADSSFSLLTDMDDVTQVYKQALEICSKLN

IGF1R (human) = IGF1R (human) (UniProt P08069); settings: compound 10.0 µM; ATP 1 µM
PDGFRB (human) = PDGFRB (human) (UniProt P09619); settings: compound 10.0 µM; ATP 0.3 µM
Sequence of PDGFRB (human) (P09619 whole entry, looked up): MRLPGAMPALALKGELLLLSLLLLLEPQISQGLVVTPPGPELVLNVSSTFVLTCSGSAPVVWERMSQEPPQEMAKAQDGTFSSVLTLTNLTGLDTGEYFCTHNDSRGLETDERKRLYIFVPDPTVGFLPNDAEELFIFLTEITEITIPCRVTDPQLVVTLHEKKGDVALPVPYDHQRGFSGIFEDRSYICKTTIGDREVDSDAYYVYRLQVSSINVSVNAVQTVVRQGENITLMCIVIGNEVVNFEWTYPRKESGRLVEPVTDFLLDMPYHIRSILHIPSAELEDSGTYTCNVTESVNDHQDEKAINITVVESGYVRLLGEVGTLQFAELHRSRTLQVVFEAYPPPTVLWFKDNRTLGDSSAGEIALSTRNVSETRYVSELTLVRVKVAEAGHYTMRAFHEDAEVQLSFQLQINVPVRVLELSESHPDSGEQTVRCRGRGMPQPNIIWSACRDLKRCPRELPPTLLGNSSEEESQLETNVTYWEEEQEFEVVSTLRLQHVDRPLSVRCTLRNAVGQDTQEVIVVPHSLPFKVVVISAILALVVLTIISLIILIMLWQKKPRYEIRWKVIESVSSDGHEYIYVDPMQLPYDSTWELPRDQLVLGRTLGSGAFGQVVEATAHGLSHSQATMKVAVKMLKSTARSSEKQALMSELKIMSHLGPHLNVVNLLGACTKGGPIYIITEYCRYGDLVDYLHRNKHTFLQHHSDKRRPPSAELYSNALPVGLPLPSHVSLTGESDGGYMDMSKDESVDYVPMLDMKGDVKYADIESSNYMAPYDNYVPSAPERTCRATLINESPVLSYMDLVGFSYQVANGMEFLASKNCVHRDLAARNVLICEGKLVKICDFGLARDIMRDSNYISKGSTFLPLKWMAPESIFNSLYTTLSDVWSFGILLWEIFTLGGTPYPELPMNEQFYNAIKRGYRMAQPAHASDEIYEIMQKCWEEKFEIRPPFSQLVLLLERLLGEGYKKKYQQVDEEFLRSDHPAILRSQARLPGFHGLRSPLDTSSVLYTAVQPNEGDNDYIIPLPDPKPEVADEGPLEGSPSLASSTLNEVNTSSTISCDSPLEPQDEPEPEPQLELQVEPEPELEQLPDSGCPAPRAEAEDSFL

CSNK2A1 (human) = CSNK2A1 (human) (UniProt P68400); settings: compound 10.0 µM; ATP 0.1 µM
Sequence of CSNK2A1 (human) (P68400 whole entry, looked up): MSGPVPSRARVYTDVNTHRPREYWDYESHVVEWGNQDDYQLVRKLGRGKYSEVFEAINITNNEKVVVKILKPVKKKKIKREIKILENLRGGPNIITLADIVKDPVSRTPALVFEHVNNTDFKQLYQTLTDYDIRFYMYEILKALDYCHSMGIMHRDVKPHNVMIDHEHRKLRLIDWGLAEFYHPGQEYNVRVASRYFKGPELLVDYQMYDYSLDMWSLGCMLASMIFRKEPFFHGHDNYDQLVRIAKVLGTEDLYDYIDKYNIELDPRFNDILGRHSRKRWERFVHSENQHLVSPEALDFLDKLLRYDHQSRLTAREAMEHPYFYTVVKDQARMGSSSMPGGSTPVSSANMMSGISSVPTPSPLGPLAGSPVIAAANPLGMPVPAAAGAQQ

CDK2 CCNA2 (human) = CDK2 CCNA2 (human) (UniProt P24941+P20248); settings: compound 10.0 µM; ATP 0.3 µM
Sequence of CDK2 CCNA2 (human) (P20248 whole entry, looked up, other chains not shown): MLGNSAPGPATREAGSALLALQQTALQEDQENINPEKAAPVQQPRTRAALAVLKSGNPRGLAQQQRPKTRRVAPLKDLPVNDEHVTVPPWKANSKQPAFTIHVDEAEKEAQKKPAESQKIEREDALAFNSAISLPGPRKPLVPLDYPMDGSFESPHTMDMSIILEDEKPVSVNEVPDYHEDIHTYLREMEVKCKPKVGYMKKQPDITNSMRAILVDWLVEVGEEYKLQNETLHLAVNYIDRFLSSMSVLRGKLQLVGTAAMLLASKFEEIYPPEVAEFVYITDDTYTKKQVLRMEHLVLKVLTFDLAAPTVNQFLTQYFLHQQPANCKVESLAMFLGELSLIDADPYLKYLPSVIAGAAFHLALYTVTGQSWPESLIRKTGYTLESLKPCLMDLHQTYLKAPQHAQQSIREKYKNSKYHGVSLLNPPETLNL

MAPK10 (human) = MAPK10 (human) (UniProt P53779); settings: compound 10.0 µM; ATP 0.3 µM

Row | residual activity (MET (human)) | residual activity (EPHB4 (human)) | residual activity (CDK4 CCND1 (human)) | residual activity (KDR (human)) | residual activity (ERBB2 (human)) | residual activity (TEK (human)) | residual activity (PLK4 (human)) | residual activity (SRC (human)) | residual activity (AKT1 (human)) | residual activity (AXL (human)) | residual activity (MAPK14 (human)) | residual activity (AURKA (human)) | residual activity (PLK1 (human)) | residual activity (EGFR (human)) | residual activity (MAP3K8 (human)) | residual activity (PTK2 (human)) | residual activity (AURKB (human)) | residual activity (NUAK1 (human)) | residual activity (IGF1R (human)) | residual activity (PDGFRB (human)) | SMILES | other results
1 | 91% | 39% | 105% | 49% | 48% | 35% | 46% | 43% | 100% | 62% | 3% | 72% | 107% | 30% | 88% | 80% | 92% | 100% | 53% | 65% | CSc1nc(-c2ccnc(NC(=O)C3CCCC3)c2)c(-c2ccc(F)cc2)n1C | residual activity (CSNK2A1 (human)): 91%; residual activity (CDK2 CCNA2 (human)): 88%; residual activity (MAPK10 (human)): 16%
2 | 35% | 13% | 99% | 4% | 2% | 9% | 26% | 1% | 76% | 54% | 0% | 44% | 95% | 1% | 69% | 99% | 50% | 89% | 18% | 20% | Fc1ccc(-c2[nH]c(CCc3ccccc3)nc2-c2ccncc2)cc1 | residual activity (CSNK2A1 (human)): 81%; residual activity (CDK2 CCNA2 (human)): 45%; residual activity (MAPK10 (human)): 14%
3 | 79% | 32% | 102% | 13% | 31% | 24% | 70% | 29% | 154% | 52% | 1% | 58% | 109% | 17% | 74% | 71% | 78% | 104% | 78% | 26% | CSc1nc(-c2ccnc(NC(C)=O)c2)c(-c2ccc(F)cc2)n1C | residual activity (CSNK2A1 (human)): 88%; residual activity (CDK2 CCNA2 (human)): 111%; residual activity (MAPK10 (human)): 11%

More lines, now with the values behind:

Row | SMILES | residual activity (MET (human)) | residual activity (EPHB4 (human)) | residual activity (CDK4 CCND1 (human)) | residual activity (KDR (human)) | residual activity (ERBB2 (human)) | residual activity (TEK (human)) | residual activity (PLK4 (human)) | residual activity (SRC (human)) | residual activity (AKT1 (human)) | residual activity (AXL (human)) | residual activity (MAPK14 (human)) | residual activity (AURKA (human)) | residual activity (PLK1 (human)) | residual activity (EGFR (human)) | residual activity (MAP3K8 (human)) | residual activity (PTK2 (human)) | residual activity (AURKB (human)) | residual activity (NUAK1 (human)) | residual activity (IGF1R (human)) | residual activity (PDGFRB (human)) | other results
4 | CSc1nc(-c2ccnc(N(C(=O)C3CC3)C(=O)C3CC3)c2)c(-c2ccc(F)cc2)n1C | 99% | 21% | 112% | 14% | 26% | 24% | 54% | 19% | 122% | 38% | 4% | 56% | 118% | 26% | 106% | 79% | 57% | 106% | 36% | 50% | residual activity (CSNK2A1 (human)): 90%; residual activity (CDK2 CCNA2 (human)): 211%; residual activity (MAPK10 (human)): 18%
5 | CSc1ccc(CSc2nc(-c3ccncc3)c(-c3ccc(F)cc3)[nH]2)cc1 | 51% | 40% | 84% | 33% | 25% | 21% | 21% | 20% | 100% | 65% | 16% | 79% | 115% | 36% | 75% | 130% | 71% | 122% | 23% | 53% | residual activity (CSNK2A1 (human)): 76%; residual activity (CDK2 CCNA2 (human)): 42%; residual activity (MAPK10 (human)): 72%
